Experimental data: patent US11697648B2, “Fused pyrimidine pyridinone compounds as JAK inhibitors” (THERAVANCE BIOPHARMA R&D IP, LLC, priority 2019, dated 2023)

Experiments:
[1] = tested on: IL-2 stimulated STAT5 phosphorylation in Tall-1 human T cell line (JAK3); test: Cellular JAK3 potency assay: inhibition of IL-2 stimulated pSTAT5 in Tall-1 T cells; assay type: cell-based
Method: Assay 2: Cellular JAK3 Potency Assay: Inhibition of IL-2 Stimulated pSTAT5 in Tall-1 T Cells
The potency of test compounds for inhibition of interleukin-2 (IL-2) stimulated STAT5 phosphorylation was measured in the Tall-1 human T cell line (DSMZ) using AlphaLisa. Because IL-2 signals through JAK3, this assay provides a measure of JAK3 cellular potency.
Phosphorylated STAT5 was measured via the AlphaLISA SureFire Ultra pSTAT5 (Tyr694/699) kit (PerkinElmer).
Human T cells from the Tall-1 cell line were cultured in a 37° C., 5% CO2 humidified incubator in RPMI (Life Technologies) supplemented with 15% Heat Inactivated Fetal Bovine Serum (FBS, Life Technologies), 2 mM Glutamax (Life Technologies), 25 mM HEPES (Life Technologies) and 1× Pen/Strep (Life Technologies). Compounds were serially diluted in DMSO and dispensed acoustically to empty wells. Assay media (phenol red-free DMEM (Life Technologies) supplemented with 10% FBS (ATCC)) was dispensed (4 μL/well) and plates shaken at 900 rpm for 10 inns. Cells were seeded at 45,000 cells/well in assay media (4 μL/well), and incubated at 37° C., 5% CO2 for 1 hour, followed by the addition of IL-2 (R&D Systems; final concentration 300 ng/ml) in pre-warmed assay media (4 μL) for 30 minutes. After cytokine stimulation, cells were lysed with 6 ul of 3× AlphaLisa Lysis Buffer (PerkinElmer) containing 1× PhosStop and Complete tablets (Roche). The lysate was shaken at 900 rpm for 10 minutes at room temperature (RT). Phosphorylated STAT5 was measured via the pSTAT5 AlphaLisa kit (PerkinElmer). Freshly prepared acceptor bead mixture was dispensed onto lysate (5 μL) under green filtered <100 lux light. Plates were shaken at 900 rpm for 2 mins, briefly spun down, and incubated for 2 hrs at RT in the dark. Donor beads were dispensed (5 μL) under green filtered <100 lux light. Plates were shaken at 900 rpm for 2 minutes, briefly spun down, and incubated overnight at RT in the dark. Luminescence was measured with excitation at 689 nm and emission at 570 nm using an EnVision plate reader (PerkinElmer) under green filtered <100 lux light.
To determine the inhibitory potency of test compounds in response to IL-2, the average emission intensity of beads bound to pSTAT5 was measured in a human T cell line. IC50 values were determined from analysis of the inhibition curves of signal intensity versus compound concentration. Data are expressed as pIC50 (negative decadic logarithm IC50) values (mean standard deviation).

JAK1 = JAK1 (Homo sapiens (Human), UniProt P23458); test: Biochemical JAK1 kinase assay (LanthaScreen)
JAK1, sequence (P23458 whole entry): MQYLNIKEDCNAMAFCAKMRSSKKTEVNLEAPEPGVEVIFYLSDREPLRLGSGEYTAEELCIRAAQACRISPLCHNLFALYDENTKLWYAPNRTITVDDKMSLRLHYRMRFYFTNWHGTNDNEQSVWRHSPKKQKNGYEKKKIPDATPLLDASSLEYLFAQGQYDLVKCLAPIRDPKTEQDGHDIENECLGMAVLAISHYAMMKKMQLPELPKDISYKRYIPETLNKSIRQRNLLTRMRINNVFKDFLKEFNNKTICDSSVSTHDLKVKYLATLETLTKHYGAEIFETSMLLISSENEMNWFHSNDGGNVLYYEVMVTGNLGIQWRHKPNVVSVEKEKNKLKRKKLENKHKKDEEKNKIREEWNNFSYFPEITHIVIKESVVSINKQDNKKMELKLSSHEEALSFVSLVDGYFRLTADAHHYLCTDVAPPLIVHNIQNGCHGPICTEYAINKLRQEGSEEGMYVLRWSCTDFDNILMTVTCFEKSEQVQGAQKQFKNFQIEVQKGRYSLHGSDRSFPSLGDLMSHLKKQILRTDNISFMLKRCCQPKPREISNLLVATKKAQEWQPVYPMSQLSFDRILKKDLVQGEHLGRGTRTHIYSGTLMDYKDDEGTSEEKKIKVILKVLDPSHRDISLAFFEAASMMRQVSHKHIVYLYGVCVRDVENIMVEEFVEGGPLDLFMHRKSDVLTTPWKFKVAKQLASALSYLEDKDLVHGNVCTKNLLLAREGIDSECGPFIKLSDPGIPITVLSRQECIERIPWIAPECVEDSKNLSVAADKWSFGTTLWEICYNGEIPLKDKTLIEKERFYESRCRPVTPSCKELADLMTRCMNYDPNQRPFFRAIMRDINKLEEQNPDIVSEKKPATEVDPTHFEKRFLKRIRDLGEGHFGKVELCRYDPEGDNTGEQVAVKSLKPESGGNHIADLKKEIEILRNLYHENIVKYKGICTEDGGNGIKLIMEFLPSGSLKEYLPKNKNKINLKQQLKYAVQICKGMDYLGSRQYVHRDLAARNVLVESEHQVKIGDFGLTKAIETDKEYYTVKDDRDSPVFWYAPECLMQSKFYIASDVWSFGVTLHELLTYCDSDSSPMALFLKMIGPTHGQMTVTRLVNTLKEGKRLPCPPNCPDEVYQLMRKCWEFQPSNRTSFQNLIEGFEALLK
Method: (§1) Assay 1: Biochemical JAK and Tyk2 Kinase Assays
(§2) A panel of four LanthaScreen JAK biochemical assays (JAK1, 2, 3 and Tyk2) were carried in a common kinase reaction buffer (50 mM HEPES, pH 7.5, 0.01% Brij-35, 10 mM MgCl2, and 1 mM EGTA). Recombinant GST-tagged JAK enzymes and a GFP-tagged STAT1 peptide substrate were obtained from Life Technologies.
(§3) Serially or discretely diluted compounds were pre-incubated with each of the four JAK enzymes and the substrate in white 384-well microplates (Corning) at ambient temperature for 1 h. ATP was subsequently added to initiate the kinase reactions in 10 μL total volume, with 1% DMSO. […] Kinase reactions were allowed to proceed for 1 hour at ambient temperature before a 10 μL preparation of EDTA (10 mM final concentration) and Tb-anti-pSTAT1 (pTyr701) antibody (Life Technologies, 2 nM final concentration) in TR-FRET dilution buffer (Life Technologies) was added. The plates were allowed to incubate at ambient temperature for 1 h before being read on the EnVision reader (Perkin Elmer). Emission ratio signals (520 nm/495 nm) were recorded and utilized to calculate the percent inhibition values based on DMSO and background controls.
(§4) For dose-response analysis, percent inhibition data were plotted vs. compound concentrations, and IC50 values were determined from a 4-parameter robust fit model with the Prism software (GraphPad Software). Results were expressed as pIC50 (negative logarithm of IC50) and subsequently converted to pKi (negative logarithm of dissociation constant, Ki) using the Cheng-Prusoff equation.

JAK3 = JAK3 (Homo sapiens (Human), UniProt P52333); test: Biochemical JAK3 kinase assay (LanthaScreen)
JAK3, sequence (P52333 whole entry): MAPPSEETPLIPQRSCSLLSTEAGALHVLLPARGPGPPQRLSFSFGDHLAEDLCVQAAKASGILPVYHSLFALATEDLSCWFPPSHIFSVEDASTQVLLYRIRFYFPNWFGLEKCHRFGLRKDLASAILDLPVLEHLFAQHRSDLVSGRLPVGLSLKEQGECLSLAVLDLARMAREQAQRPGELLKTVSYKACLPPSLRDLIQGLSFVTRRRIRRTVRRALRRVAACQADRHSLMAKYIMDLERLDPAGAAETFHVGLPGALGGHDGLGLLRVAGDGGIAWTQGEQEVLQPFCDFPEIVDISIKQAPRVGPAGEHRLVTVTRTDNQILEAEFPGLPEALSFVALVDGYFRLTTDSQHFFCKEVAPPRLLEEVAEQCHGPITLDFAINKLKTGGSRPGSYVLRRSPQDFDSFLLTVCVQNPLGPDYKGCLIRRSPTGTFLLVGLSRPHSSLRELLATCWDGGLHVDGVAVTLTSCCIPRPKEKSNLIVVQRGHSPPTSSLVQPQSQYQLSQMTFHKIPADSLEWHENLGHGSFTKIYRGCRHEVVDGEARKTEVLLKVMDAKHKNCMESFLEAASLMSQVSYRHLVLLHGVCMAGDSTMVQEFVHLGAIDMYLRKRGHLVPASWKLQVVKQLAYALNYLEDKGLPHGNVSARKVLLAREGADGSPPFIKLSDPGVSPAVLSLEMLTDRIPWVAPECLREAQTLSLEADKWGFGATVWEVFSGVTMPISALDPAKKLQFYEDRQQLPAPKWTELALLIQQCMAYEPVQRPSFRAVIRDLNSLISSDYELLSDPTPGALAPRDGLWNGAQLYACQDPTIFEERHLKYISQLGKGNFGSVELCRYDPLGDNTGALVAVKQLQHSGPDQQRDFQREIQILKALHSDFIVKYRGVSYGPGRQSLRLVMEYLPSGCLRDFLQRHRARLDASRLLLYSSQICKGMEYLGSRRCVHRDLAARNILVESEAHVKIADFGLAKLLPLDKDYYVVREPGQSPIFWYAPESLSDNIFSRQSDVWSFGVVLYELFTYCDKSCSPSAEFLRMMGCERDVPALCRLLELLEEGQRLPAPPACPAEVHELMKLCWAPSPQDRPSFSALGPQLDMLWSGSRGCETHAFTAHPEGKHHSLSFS
Method: as §1, §2, §3, §4

[2] = IL-2 stimulated pSTAT5, Tall-1 T cells
[3] = selectivity JAK3 over JAK1, difference of pKi
[4] = IL-2 stimulated pSTAT5 in Tall-1 T cells
[5] = selectivity, difference of pKi values

C=CC(=O)N1CC(CCn2c(=O)ccc3cnc(Nc4cnn(CCOC)c4)nc32)C1 [Example 21]
Tall-1 (pIC50) [1, 2]: C (C represents a pIC50 value between 6 and 6.7 (IC50 between 1 μM and 200 nM)) | JAK 1 (pKi) (JAK1): E (E represents a pKi value of 7 or below (Ki of 100 nM or above)) | JAK 3 (pKi) (JAK3): B (B represents pKi value between 9 and 10 (Ki between 1 nM and 0.1 nM)) | JAK3 (pKi)-JAK1 (pKi) (JAK3; [3]): A (A represents a value of 3 or above)

C=CC(=O)N1CC(CCn2c(=O)ccc3cnc(Nc4cnn(CCN(C)C)c4)nc32)C1 [Example 22]
Tall-1 (pIC50) [1, 2]: C (C represents a pIC50 value between 6 and 6.7 (IC50 between 1 μM and 200 nM)) | JAK 1 (pKi) (JAK1): E (E represents a pKi value of 7 or below (Ki of 100 nM or above)) | JAK 3 (pKi) (JAK3): B (B represents pKi value between 9 and 10 (Ki between 1 nM and 0.1 nM)) | JAK3 (pKi)-JAK1 (pKi) (JAK3; [3]): A (A represents a value of 3 or above)

C=CC(=O)N1CC(CCn2c(=O)ccc3cnc(Nc4ccc(N5CCOCC5)cn4)nc32)C1 [Example 29]
Tall-1 (pIC50) [1, 2]: C (C represents a pIC50 value between 6 and 6.7 (IC50 between 1 μM and 200 nM)) | JAK 1 (pKi) (JAK1): E (E represents a pKi value of 7 or below (Ki of 100 nM or above)) | JAK 3 (pKi) (JAK3): B (B represents pKi value between 9 and 10 (Ki between 1 nM and 0.1 nM)) | JAK3 (pKi)-JAK1 (pKi) (JAK3; [3]): A (A represents a value of 3 or above)

C=CC(=O)N1CCN(CCn2c(=O)ccc3cnc(Nc4ccccc4)nc32)CC1 [Example 40]
Tall-1 (pIC50) [1, 2]: C (C represents a pIC50 value between 6 and 6.7 (IC50 between 1 μM and 200 nM)) | JAK 1 (pKi) (JAK1): E (E represents a pKi value of 7 or below (Ki of 100 nM or above)) | JAK 3 (pKi) (JAK3): B (B represents pKi value between 9 and 10 (Ki between 1 nM and 0.1 nM)) | JAK3 (pKi)-JAK1 (pKi) (JAK3; [3]): A (A represents a value of 3 or above)

C=CC(=O)N1CCN(CCn2c(=O)ccc3cnc(Nc4ccc(N5CCOCC5)c(F)c4)nc32)CC1 [Example 41]
Tall-1 (pIC50) [1, 2]: C (C represents a pIC50 value between 6 and 6.7 (IC50 between 1 μM and 200 nM)) | JAK 1 (pKi) (JAK1): E (E represents a pKi value of 7 or below (Ki of 100 nM or above)) | JAK 3 (pKi) (JAK3): B (B represents pKi value between 9 and 10 (Ki between 1 nM and 0.1 nM)) | JAK3 (pKi)-JAK1 (pKi) (JAK3; [3]): A (A represents a value of 3 or above)

C=CC(=O)N1CCN(CCn2c(=O)ccc3cnc(Nc4cnn(CCOC(C)C)c4)nc32)CC1 [Example 42]
Tall-1 (pIC50) [1, 2]: C (C represents a pIC50 value between 6 and 6.7 (IC50 between 1 μM and 200 nM)) | JAK 1 (pKi) (JAK1): E (E represents a pKi value of 7 or below (Ki of 100 nM or above)) | JAK 3 (pKi) (JAK3): B (B represents pKi value between 9 and 10 (Ki between 1 nM and 0.1 nM)) | JAK3 (pKi)-JAK1 (pKi) (JAK3; [3]): A (A represents a value of 3 or above)

C=CC(=O)N1CCN(CCn2c(=O)ccc3cnc(Nc4cnn(C5CCN(C)CC5)c4)nc32)CC1 [Example 43]
Tall-1 (pIC50) [1, 2]: C (C represents a pIC50 value between 6 and 6.7 (IC50 between 1 μM and 200 nM)) | JAK 1 (pKi) (JAK1): E (E represents a pKi value of 7 or below (Ki of 100 nM or above)) | JAK 3 (pKi) (JAK3): B (B represents pKi value between 9 and 10 (Ki between 1 nM and 0.1 nM)) | JAK3 (pKi)-JAK1 (pKi) (JAK3; [3]): A (A represents a value of 3 or above)

C=CC(=O)N1CCN(CCn2c(=O)ccc3cnc(Nc4ccc(N5CCN(C6CC6)CC5)cc4)nc32)CC1 [Example 50]
Tall-1 (pIC50) [1, 2]: C (C represents a pIC50 value between 6 and 6.7 (IC50 between 1 μM and 200 nM)) | JAK 1 (pKi) (JAK1): E (E represents a pKi value of 7 or below (Ki of 100 nM or above)) | JAK 3 (pKi) (JAK3): B (B represents pKi value between 9 and 10 (Ki between 1 nM and 0.1 nM)) | JAK3 (pKi)-JAK1 (pKi) (JAK3; [3]): A (A represents a value of 3 or above)

C=CC(=O)N1CCN(CCn2c(=O)ccc3cnc(Nc4ccc(N5C[C@@H](C)N(C)[C@H](C)C5)cc4)nc32)[C@@H](C)C1 [Example 199]
Tall-1 (pIC50) [1, 2]: A (A represents a pIC50 value≥7.5 (IC50≤32 nM)) | JAK 1 (pKi) (JAK1): E (E represents a pKi value of 7 or below (Ki of 100 nM or above)) | JAK 3 (pKi) (JAK3): B (B represents pKi value between 9 and 10 (Ki between 1 nM and 0.1 nM)) | JAK3 (pKi)-JAK1 (pKi) (JAK3; [3]): A (A represents a value of 3 or above)

C=CC(=O)N1CCN(C(C)Cn2c(=O)ccc3cnc(Nc4ccc(N5CCN(C)CC5)cc4)nc32)CC1 (centres unmarked) [Example 218]
Tall-1 (pIC50) [1, 2]: C (C represents a pIC50 value between 6 and 6.7 (IC50 between 1 μM and 200 nM)) | JAK 1 (pKi) (JAK1): E (E represents a pKi value of 7 or below (Ki of 100 nM or above)) | JAK 3 (pKi) (JAK3): C (C represents a pKi value between 8 and 9 (Ki between 10 nM and 1 nM)) | JAK3 (pKi)-JAK1 (pKi) (JAK3; [3]): B (B represents a value of 2.5 to 3)

C=CC(=O)N1CCN(CCn2c(=O)ccc3cnc(Nc4ccc(N5C[C@@H](C)N(C)[C@@H](C)C5)cc4)nc32)[C@@H](CC)C1 [Example 222]
Tall-1 (pIC50) [1, 2]: A (A represents a pIC50 value≥7.5 (IC50≤32 nM)) | JAK 1 (pKi) (JAK1): E (E represents a pKi value of 7 or below (Ki of 100 nM or above)) | JAK 3 (pKi) (JAK3): B (B represents pKi value between 9 and 10 (Ki between 1 nM and 0.1 nM)) | JAK3 (pKi)-JAK1 (pKi) (JAK3; [3]): A (A represents a value of 3 or above)

C=CC(=O)N1CC(CCn2c(=O)ccc3cnc(Nc4ccc(N5C[C@@H](C)N(C)C[C@@H]5C)cc4)nc32)C1 [Example 253]
Tall-1 (pIC50) [1, 4]: B (B represents a pC50 value between 6.7 (included) and 7.5 (IC50 between 200 nM and 32 nM)) | JAK 1 (pKi) (JAK1): E (E represents a pKi value of 7 or below (Ki of 100 nM or above)) | JAK 3 (pKi) (JAK3): A (A represents a pKi value≥10 (Ki≤0.1 nM)) | JAK3 (pKi)-JAK1 (pKi) (JAK3; [5]): A (A represents a value of 3 or above)

C=CC(=O)N1CC(CCn2c(=O)ccc3cnc(Nc4ccn(CC)n4)nc32)C1 [Example 254]
Tall-1 (pIC50) [1, 4]: B (B represents a pC50 value between 6.7 (included) and 7.5 (IC50 between 200 nM and 32 nM)) | JAK 1 (pKi) (JAK1): E (E represents a pKi value of 7 or below (Ki of 100 nM or above)) | JAK 3 (pKi) (JAK3): B (B represents pKi value between 9 and 10 (Ki between 1 nM and 0.1 nM)) | JAK3 (pKi)-JAK1 (pKi) (JAK3; [5]): A (A represents a value of 3 or above)

C=CC(=O)N1CCN(CCn2c(=O)ccc3cnc(Nc4ccn(CC)n4)nc32)[C@@H](C)C1 [Example 255]
Tall-1 (pIC50) [1, 4]: C (C represents a pIC50 value between 6 and 6.7 (IC50 between 1 μM and 200 nM)) | JAK 1 (pKi) (JAK1): E (E represents a pKi value of 7 or below (Ki of 100 nM or above)) | JAK 3 (pKi) (JAK3): B (B represents pKi value between 9 and 10 (Ki between 1 nM and 0.1 nM)) | JAK3 (pKi)-JAK1 (pKi) (JAK3; [5]): A (A represents a value of 3 or above)
